Values quoted from earlier work, collected in the CATMoS acute toxicity set (Mansouri et al. 2021).
Where “and” joins values, the source holds several entries; their conditions need not be identical. Identical values can stand only once.

Test: rat acute oral toxicity
Details: in vivo
In the case of `Cc1ccc(C(=O)c2ccccc2)c(C(=O)O)c1`, the LD50 is listed as 5600 mg/kg.
For `CCCCCCCCCCCCCCSC#N`, the LD50 is listed as 15000 mg/kg.
For `CN1CCN(C2=Cc3ccccc3Oc3ccc(F)cc32)CC1`, the LD50 is listed as 646 mg/kg.
For `N=C(N)NN=C1C=CC(=NNC(N)=S)C=C1`, the LD50 is given as 750 mg/kg.
In the case of `COC(=O)C1C2CC3c4[nH]c5cc(OC)ccc5c4CCN3CC2CC(OC2CCCCO2)C1OC` (configuration not stated), the LD50 is listed as 173 mg/kg.
In the case of `N#Cc1cccc(C#N)c1`, the LD50 is given as 860 mg/kg.
In the case of `CCN(CC)CCOC(=O)C1(C2CCCCC2)CCCCC1`, the LD50 is listed as 1290 mg/kg.
In the case of `CC(=O)OCCN(CCOC(C)=O)c1ccccc1`, the LD50 is given as 2150 mg/kg.
For `COc1ccc2[nH]c(S(=O)Cc3ncc(C)c(OC)c3C)nc2c1` (configuration not stated), the LD50 is given as 2210 mg/kg.
For `CCOC(=O)CI`, the LD50 is listed as 50 mg/kg.
For `CC1(C)C(C=C(Br)Br)C1C(=O)OC(C#N)c1cccc(Oc2ccccc2)c1` (configuration not stated), the LD50 is listed as 80 mg/kg.
For `CCCOC(=O)c1c[n+](C)c2n(c1=O)C(C)CCC2` (configuration not stated), the LD50 is given as 1810 mg/kg.
In the case of `CCCCC(CC)COC(=O)c1ccccc1C(=O)O` (configuration not stated), the LD50 is listed as 1340 mg/kg.
In the case of `O=[N+]([O-])c1ccccc1C1OCC(CCl)O1` (configuration not stated), the LD50 is listed as 65 mg/kg.
For `O=C(OCCOC(=O)C(Cl)(Cl)Cl)C(Cl)(Cl)Cl`, the LD50 is listed as 7000 mg/kg.
In the case of `CCN(CCC#N)c1cccc(C)c1`, the LD50 is listed as 3710 mg/kg.
In the case of `c1ccc(Cc2ccccc2)cc1`, the LD50 is listed as 2250 mg/kg.
For `O=C(O)c1cccc(Cl)n1`, the LD50 is listed as 2180 mg/kg.
For `N#CSc1ccc(C(=O)O)cc1`, the LD50 is given as 83 mg/kg.
For `CC(C)c1ccc(NC(=O)N(C)C)cc1`, the LD50 is given as 1830 mg/kg.
For `O=CNC(N1CCOCC1)C(Cl)(Cl)Cl` (configuration not stated), the LD50 is listed as 990 mg/kg.
In the case of `CN(C)CCCSc1ccccc1NC(=O)C=Cc1ccccc1`, the LD50 is listed as 1500 mg/kg.
For `CC(C)CNCC(C)C`, the LD50 is listed as 258 mg/kg.
For `Cn1c(=O)c2c(nc(Cc3ccc(N)cc3)n2C)n(C)c1=O`, the LD50 is listed as 383 mg/kg.
In the case of `S=c1[nH]c2ccccc2s1`, the LD50 is listed as 631 mg/kg.
For `OC(Cn1cncn1)(c1ccc(F)cc1)c1ccccc1F` (configuration not stated), the LD50 is listed as 1140 mg/kg.
For `CCOC(=O)C(C(C)=O)P(=O)(OCC)OCC` (configuration not stated), the LD50 is listed as 176 mg/kg.
For `O=C(Cn1ccnc1)c1ccc2ccccc2c1`, the LD50 is listed as 504 mg/kg.
For `CCOC(=O)N(c1cccc(C(=O)c2ccccc2)c1)S(=O)(=O)C(F)(F)F`, the LD50 is given as 4700 mg/kg.
For `O=c1nc(O)n(Cl)c(=O)n1Cl`, the LD50 is listed as 1220 mg/kg.
For `COc1cc2nc(N3CCN(C(=O)c4ccco4)CC3)nc(N)c2cc1OC`, the LD50 is listed as 1950 mg/kg.
In the case of `CNC(=O)ON=C1C2CCC(C2)C1(C)[N+](=O)[O-]` (configuration not stated), the LD50 is given as 24 mg/kg.
For `O=Cc1cccc(Oc2ccccc2)c1`, the LD50 is listed as 1220 mg/kg.
For `COc1ccc(N)c([N+](=O)[O-])c1`, the LD50 is listed as 14100 mg/kg.
In the case of `CN1CCC(=C2c3ccccc3C(O)c3ccccc32)CC1` (configuration not stated), the LD50 is given as 135 mg/kg.
For `CCC(C)Nc1ccc(NC(C)CC)cc1` (configuration not stated), the LD50 is listed as 148 mg/kg.
In the case of `CCOC(C1=NCC(C)(C)CN1)c1ccc(C(C)C)cc1` (configuration not stated), the LD50 is given as 220 mg/kg.
In the case of `CCCN=C(NCCC)C(OCC)c1ccccc1` (configuration not stated), the LD50 is given as 95 mg/kg.
For `CCCCCC1CNC(C(=O)NC(C(C)Cl)C2OC(SC)C(O)C(O)C2O)C1` (configuration not stated), the LD50 is given as 1100 mg/kg.
For `CCNC(=O)Cc1ccccc1`, the LD50 is given as 756 mg/kg.
In the case of `C=CCSP(=O)(NC(=O)CC)OC` (configuration not stated), the LD50 is listed as 125 mg/kg.
For `COc1c(Cl)cc2[nH]c(C(F)(F)F)nc2c1Cl`, the LD50 is given as 8.03 mg/kg.
For `CNC(=O)ON=C1SCCSC1(C)C`, the LD50 is listed as 0.27 mg/kg.
For `CCCCCCCCCCCCCCCCCCOP(=O)([O-])OCC[N+]1(C)CCCCC1`, the LD50 is given as 631 mg/kg.
In the case of `O=C(COc1ccc(Cl)cc1Cl)OCC=CCCl`, the LD50 is listed as 547 mg/kg.
In the case of `COc1ccc(C(=O)CCC(=O)O)c2cc(C)oc12`, the LD50 is listed as 2160 mg/kg.
In the case of `O=C(O)c1cccnc1Nc1cccc(C(F)(F)F)c1`, the LD50 is given as 250 mg/kg.
For `CN(C)C=CC#N`, the LD50 is listed as 946 mg/kg.
For `c1ccc(C2(c3ccccc3)OCC(C3CCCCN3)O2)cc1` (configuration not stated), the LD50 is given as 310 mg/kg and 280 mg/kg.
In the case of `CC1(NC(N)=O)CCCC1`, the LD50 is given as 1200 mg/kg.
For `COC1=C2C[C@@H](C)C[C@H](OC)[C@H](O)[C@@H](C)C=C(C)[C@H](OC(N)=O)[C@@H](OC)C=CC=C(C)C(=O)NC(=CC1=O)C2=O`, the LD50 is given as 2500 mg/kg.
In the case of `c1ccc2c(CC3=NCCN3)cccc2c1`, the LD50 is listed as 1260 mg/kg.
For `CN(C)C(=O)CCNc1ccc(Br)cc1`, the LD50 is given as 1810 mg/kg.
For `CC(=O)c1cc2c(cc1C)C(C)(C)C(C)C2C(C)C` (configuration not stated), the LD50 is listed as 2220 mg/kg.
For `C=C(C)C(=O)OCC(C)C`, the LD50 is listed as 9590 mg/kg.
For `C=COP(=O)(OCC)OC(CCl)c1cc(Cl)c(Cl)cc1Cl` (configuration not stated), the LD50 is given as 1100 mg/kg.
In the case of `CCCCCCCc1cc(C)c(O)c(C)c1`, the LD50 is given as 1600 mg/kg.
In the case of `CCCCOC(CBr)c1ccc(C2CCCC2)cc1` (configuration not stated), the LD50 is listed as 250 mg/kg.
For `C#CCOC(C)=O`, the LD50 is listed as 250 mg/kg.
For `c1ccc(Nc2cccc3ccccc23)cc1`, the LD50 is given as 1620 mg/kg.
For `Oc1c(Cl)cc2[nH]c(C(F)(F)F)nc2c1Cl`, the LD50 is given as 58 mg/kg.
For `CC(C)(C)NCC(O)c1ccccc1Cl` (configuration not stated), the LD50 is given as 560 mg/kg.
In the case of `Nc1ccc(N=Nc2ccccc2)c(N)n1`, the LD50 is listed as 472 mg/kg and 403 mg/kg.
For `S=c1[nH]n(-c2ccccc2)c(=S)s1`, the LD50 is listed as 763 mg/kg.
For `Nc1ccc(N=Nc2ccccc2)cc1`, the LD50 is given as 1250 mg/kg.
For `CCCCCCOC(C[n+]1ccccc1)c1ccc(C2CCCCC2)cc1` (configuration not stated), the LD50 is listed as 250 mg/kg.
In the case of `O=C(O)C(F)(F)C(F)(F)C(F)(F)C(F)(F)C(F)(F)C(F)(F)C(F)(F)C(F)(F)C(F)(F)F`, the LD50 is listed as 57 mg/kg.
In the case of `Cc1ncc(CSSCc2cnc(C)c(O)c2CCl)c(CCl)c1O`, the LD50 is listed as 4300 mg/kg.
For `CCCCOCCOCCOCCO`, the LD50 is given as 5300 mg/kg.
In the case of `S=C1NCCNC(=S)S1`, the LD50 is given as 240 mg/kg.
In the case of `O=C(O)CCCN1C(=O)c2cccc3cccc(c23)C1=O`, the LD50 is listed as 4000 mg/kg.
For `C=CC(=O)OCC(CC)(COC(=O)C=C)COC(=O)C=C`, the LD50 is given as 5190 mg/kg.
